Source: US9341616B2, “Sweet taste receptor chimeric proteins and use thereof” (AJINOMOTO CO., INC., priority 2014, dated 2016)
Where two headings read alike, the source gives them in different places. Residues, ends and D or L forms follow the SMILES beside them.

Biological target: h-mT1R2-481/mT1R3 (UniProt Q8TE23+Q925D8, A537S/A564V/A568V/A570T/A649T/A658V/A782V/E530V/E534N/E542M/E548N/F525Y/F665L/G696N/G701T/H484Y/H528R/I481V/I486P/I490V/I510L/I518V/I595M/I643V/I645L/I692L/I695G/K504M/K626T/K714N/L521P/L571I/L578I/L610P/L631F/L636F/L639V/L688V/L702I/L734M/L800F/M492I/M616G/M682V/M690V/M748V/N540G/N541S/N721H/P638T/P824S/Q536L/Q546K/Q555R/Q676H/R498S/R667S/S501P/S547N/S550A/S628F/S663R/S670G/S681F/S703N/S727G/S784D/S804G/T529S/T549I/T609V/T629S/T642S/T705I/T706G/T716I/V508I/V512P/V557A/V585L/V613L/V617M/V673M/V687A/V691A/V694A/V718L/V741L/V774I/V791M/Y533F/Y615F/Y671F/Y769S/Y783H)
Sequence (Q8TE23 with tags, fused parts or gaps with the stated changes limits assumed): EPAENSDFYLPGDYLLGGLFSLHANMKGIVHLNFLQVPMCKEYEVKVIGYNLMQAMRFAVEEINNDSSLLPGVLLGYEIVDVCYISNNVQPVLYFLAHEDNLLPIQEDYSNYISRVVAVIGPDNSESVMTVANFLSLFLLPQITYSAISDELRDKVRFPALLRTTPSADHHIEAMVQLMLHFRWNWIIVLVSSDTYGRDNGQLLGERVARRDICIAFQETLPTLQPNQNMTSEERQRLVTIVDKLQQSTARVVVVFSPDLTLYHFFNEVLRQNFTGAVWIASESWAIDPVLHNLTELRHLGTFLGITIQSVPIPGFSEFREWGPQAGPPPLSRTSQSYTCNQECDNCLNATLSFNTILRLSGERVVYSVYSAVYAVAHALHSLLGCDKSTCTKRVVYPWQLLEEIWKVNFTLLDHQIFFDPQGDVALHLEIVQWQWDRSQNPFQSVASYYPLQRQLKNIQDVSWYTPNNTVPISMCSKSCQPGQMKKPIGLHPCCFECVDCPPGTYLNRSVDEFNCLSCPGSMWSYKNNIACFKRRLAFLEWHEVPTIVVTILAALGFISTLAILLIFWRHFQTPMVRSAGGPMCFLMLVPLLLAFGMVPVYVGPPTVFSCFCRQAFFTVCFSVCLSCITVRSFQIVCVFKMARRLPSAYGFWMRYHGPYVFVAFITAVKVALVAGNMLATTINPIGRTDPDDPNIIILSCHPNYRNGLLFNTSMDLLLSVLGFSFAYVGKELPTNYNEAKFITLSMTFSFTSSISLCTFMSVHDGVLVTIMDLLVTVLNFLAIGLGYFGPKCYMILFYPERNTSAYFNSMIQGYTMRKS
Sequence (Q925D8 21-858, stated change not applied): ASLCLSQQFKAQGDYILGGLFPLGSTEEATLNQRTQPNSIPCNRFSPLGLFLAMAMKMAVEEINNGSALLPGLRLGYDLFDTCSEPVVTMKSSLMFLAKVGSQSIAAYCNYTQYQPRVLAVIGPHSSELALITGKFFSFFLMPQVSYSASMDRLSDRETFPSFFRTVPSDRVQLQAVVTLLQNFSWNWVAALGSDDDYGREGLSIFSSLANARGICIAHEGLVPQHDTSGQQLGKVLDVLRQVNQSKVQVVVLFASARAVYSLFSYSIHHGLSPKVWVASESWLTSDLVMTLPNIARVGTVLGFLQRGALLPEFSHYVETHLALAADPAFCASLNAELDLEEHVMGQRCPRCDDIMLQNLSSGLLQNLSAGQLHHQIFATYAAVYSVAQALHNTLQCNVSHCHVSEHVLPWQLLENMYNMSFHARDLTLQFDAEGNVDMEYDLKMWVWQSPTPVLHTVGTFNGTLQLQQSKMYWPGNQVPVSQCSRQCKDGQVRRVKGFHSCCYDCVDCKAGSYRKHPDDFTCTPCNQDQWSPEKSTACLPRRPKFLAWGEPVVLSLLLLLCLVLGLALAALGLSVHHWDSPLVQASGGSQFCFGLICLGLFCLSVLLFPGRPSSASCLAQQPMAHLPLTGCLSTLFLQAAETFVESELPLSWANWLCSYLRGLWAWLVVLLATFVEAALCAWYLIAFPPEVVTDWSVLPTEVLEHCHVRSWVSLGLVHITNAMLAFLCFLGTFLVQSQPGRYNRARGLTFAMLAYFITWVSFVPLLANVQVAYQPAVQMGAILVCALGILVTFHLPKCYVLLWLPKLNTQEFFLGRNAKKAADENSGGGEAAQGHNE
Conditions: genes h-mT481/mT3 (h-mT1R2-481, mT1R3), HEK293E cells

Structure (SMILES): CC1=CC(=O)NS(=O)(=O)O1 [Acesulfame K, acesulfame potassium]
- S/N (Table 3): 3.0
- S/N (Table 4): 3.7

Structure (SMILES): COC(=O)[C@H](Cc1ccccc1)NC(=O)[C@H](CC(=O)O)NCCCc1ccc(OC)c(O)c1 [Advantame, advantame]
- S/N (Table 3): 6.6
- S/N (Table 4): 7.1

Structure (SMILES): COC(=O)[C@H](Cc1ccccc1)NC(=O)[C@@H](N)CC(=O)O [Aspartame, aspartame] (HELM PEPTIDE1{D.F.[CO[*:1]]}$$$$V2.0)
- S/N (Table 3): 4.3
- S/N (Table 4): 5.8

Structure (SMILES): COC(=O)[C@H](Cc1ccccc1)NC(=O)[C@H](CC(=O)O)NCCC(C)(C)C [Neotame, neotame]
- S/N (Table 3): 5.4
- S/N (Table 4): 5.4

Structure (SMILES): C[C@H](NC(=Nc1ccc(C#N)cc1)NCC(=O)O)c1ccccc1 [SC-45647, [3-[(S)-1-phenylethyl]-2-(4-cyanophenyl)guanidino]acetic acid]
- S/N (Table 3): 5.1
- S/N (Table 4): 5.2

Structure (SMILES): O=C1NS(=O)(=O)c2ccccc21.[Na] [Saccharin Na, sodium saccharin]
- S/N (Table 3): 3.9
- S/N (Table 4): 4.4

Structure (SMILES): OC[C@H]1O[C@H](O[C@]2(CCl)O[C@H](CCl)[C@@H](O)[C@@H]2O)[C@H](O)[C@@H](O)[C@H]1Cl [Sucralose, sucralose]
- S/N (Table 3): 5.0
- S/N (Table 4): 5.7

Structure (SMILES): OC[C@H]1O[C@@](CO)(O[C@H]2O[C@H](CO)[C@@H](O)[C@H](O)[C@H]2O)[C@@H](O)[C@@H]1O [Sucrose, sucrose]
- S/N (Table 3): 2.8
- S/N (Table 4): 3.9
